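Assay format: 96-well plates, 48-hour exposure. Abbreviation: GI50, concentration required for 50% inhibition of growth.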 Activity calls are given as the source filed them. No stated cut-off is given here; in the data, active = GI50 up to about 1.1 µM and inactive = higher.
Experiments:
Assay in all cases: growth of human tumour cells (NCI), 48 h
[1] = tested on: Hs-578T
[2] = tested on: EKVX
[3] = tested on: HOP-92
[4] = tested on: UACC-62
[5] = tested on: PC-3
[6] = tested on: HCT-116
[7] = tested on: NCI/ADR-RES
[8] = tested on: SK-MEL-28
[9] = tested on: SF-539
[10] = tested on: KM12
[11] = tested on: MCF7
[12] = tested on: TK-10
[13] = tested on: HOP-62
[14] = tested on: SN12C
[15] = tested on: HCC 2998
[16] = tested on: SK-MEL-5
[17] = tested on: SNB-19
[18] = tested on: SK-OV-3
[19] = tested on: RXF 393
[20] = tested on: NCI-H23

SMILES	GI50 [1]	GI50 [2]	GI50 [3]	GI50 [4]	GI50 [5]	GI50 [6]	GI50 [7]	GI50 [8]	GI50 [9]	GI50 [10]	GI50 [11]	GI50 [12]	GI50 [13]	GI50 [14]	GI50 [15]	GI50 [16]	GI50 [17]	GI50 [18]	GI50 [19]	GI50 [20]
O=[N+]([O-])c1ccc2[nH]ncc2c1Cl	21.4 µM (inactive)	20.6 µM (inactive)	63 µM (inactive)	34.2 µM (inactive)	29.6 µM (inactive)	24 µM (inactive)	26.5 µM (inactive)	33.5 µM (inactive)	36.7 µM (inactive)	25.3 µM (inactive)	41.7 µM (inactive)	83.6 µM (inactive)	50.6 µM (inactive)	31.7 µM (inactive)	29.6 µM (inactive)	13.3 µM (inactive)	36.8 µM (inactive)	53.5 µM (inactive)	42.8 µM (inactive)	–
CC[C@@]1(O)C(=O)OCc2c1cc1n(c2=O)Cc2c-1nc1ccccc1c2/C=N/NC(=O)C[N+](C)(C)C	> 100 µM (inactive)	47.9 µM (inactive)	3.68 µM (inactive)	0.121 µM (active)	9.59 µM (inactive)	2.3 µM (inactive)	1.65 µM (inactive)	15.4 µM (inactive)	0.386 µM (active)	> 53.8 µM (inactive)	0.192 µM (active)	> 80.2 µM (inactive)	0.359 µM (active)	0.0857 µM (active)	4.59 µM (inactive)	1.5 µM (inactive)	0.75 µM (active)	2.1 µM (inactive)	0.697 µM (active)	0.495 µM (active)
COc1ccc(NCc2cc(OC)c(OC)c(OC)c2)cc1	0.641 µM (active)	4.74 µM (inactive)	1.39 µM (inactive)	0.274 µM (active)	0.912 µM (active)	0.408 µM (active)	0.366 µM (active)	0.396 µM (active)	0.265 µM (active)	0.201 µM (active)	0.491 µM (active)	–	0.468 µM (active)	0.818 µM (active)	0.362 µM (active)	0.293 µM (active)	0.698 µM (active)	0.463 µM (active)	0.372 µM (active)	0.973 µM (active)
Cc1ccc(NCc2nnc3c(-c4ccccc4)nc4ccccc4n23)cc1	50.7 µM (inactive)	18.7 µM (inactive)	16 µM (inactive)	33.7 µM (inactive)	19.1 µM (inactive)	21.5 µM (inactive)	50.9 µM (inactive)	64 µM (inactive)	60.5 µM (inactive)	22.8 µM (inactive)	23.6 µM (inactive)	43.9 µM (inactive)	46.1 µM (inactive)	32.6 µM (inactive)	44.6 µM (inactive)	14.4 µM (inactive)	38 µM (inactive)	40.6 µM (inactive)	34.8 µM (inactive)	–
CCCCCCCCCCOCCOCCOCCOCCCCC(O)CCCCCCCC1=C[C@H](C)OC1=O (stereo not given in full)	14.8 µM (inactive)	10.7 µM (inactive)	14.2 µM (inactive)	13.2 µM (inactive)	9.98 µM (inactive)	9.53 µM (inactive)	7.41 µM (inactive)	12.2 µM (inactive)	12.1 µM (inactive)	10.6 µM (inactive)	5.62 µM (inactive)	10.2 µM (inactive)	–	13.3 µM (inactive)	13.2 µM (inactive)	0.76 µM (active)	13.8 µM (inactive)	16.5 µM (inactive)	10.9 µM (inactive)	0.774 µM (active)
COc1ccc(/C=N\N(C)Cc2cccc3ccsc23)cc1	> 100 µM (inactive)	> 100 µM (inactive)	> 100 µM (inactive)	> 100 µM (inactive)	> 100 µM (inactive)	72.4 µM (inactive)	> 100 µM (inactive)	> 100 µM (inactive)	–	> 100 µM (inactive)	> 100 µM (inactive)	> 100 µM (inactive)	> 100 µM (inactive)	> 100 µM (inactive)	> 100 µM (inactive)	28.6 µM (inactive)	> 100 µM (inactive)	> 100 µM (inactive)	> 100 µM (inactive)	60.4 µM (inactive)
O=C(NCCO)c1c(O)c2ccccc2[nH]c1=O	> 100 µM (inactive)	69.5 µM (inactive)	> 100 µM (inactive)	–	> 100 µM (inactive)	> 100 µM (inactive)	> 100 µM (inactive)	> 100 µM (inactive)	> 100 µM (inactive)	> 100 µM (inactive)	> 100 µM (inactive)	> 100 µM (inactive)	> 100 µM (inactive)	> 100 µM (inactive)	> 100 µM (inactive)	> 100 µM (inactive)	> 100 µM (inactive)	–	> 100 µM (inactive)	> 100 µM (inactive)
C/C(=N\Nc1nc2cccnc2s1)c1ccccn1	0.436 µM (active)	< 0.01 µM (active)	0.37 µM (active)	0.0586 µM (active)	0.0202 µM (active)	< 0.01 µM (active)	< 0.01 µM (active)	0.364 µM (active)	0.124 µM (active)	0.273 µM (active)	0.0136 µM (active)	–	0.401 µM (active)	< 0.01 µM (active)	1.07 µM (active)	0.033 µM (active)	0.491 µM (active)	0.0902 µM (active)	1.06 µM (active)	0.0228 µM (active)
C=C1CCCCCCCCCCC1[S+]([O-])c1ccccc1 (stereo not given)	44.5 µM (inactive)	> 100 µM (inactive)	> 100 µM (inactive)	45.4 µM (inactive)	31.5 µM (inactive)	30.5 µM (inactive)	34.4 µM (inactive)	50.2 µM (inactive)	21 µM (inactive)	–	30.1 µM (inactive)	–	60.8 µM (inactive)	23.2 µM (inactive)	> 100 µM (inactive)	29.5 µM (inactive)	56.6 µM (inactive)	38 µM (inactive)	26.5 µM (inactive)	58.5 µM (inactive)
COc1ccc(S(=O)(=O)Nc2ccc(-c3csc(N4C(=O)/C(=C/c5cccs5)N=C4c4ccccc4)n3)cc2)cc1Cl	35.2 µM (inactive)	–	22.5 µM (inactive)	31.1 µM (inactive)	34.8 µM (inactive)	30.9 µM (inactive)	39.4 µM (inactive)	65.5 µM (inactive)	54.2 µM (inactive)	49.1 µM (inactive)	46.9 µM (inactive)	56.1 µM (inactive)	4.08 µM (inactive)	66.2 µM (inactive)	44.7 µM (inactive)	40.8 µM (inactive)	49.7 µM (inactive)	> 100 µM (inactive)	29.5 µM (inactive)	21.5 µM (inactive)
O=C(NC(Cl)(C(F)(F)F)C(F)(F)F)c1ccc(F)cc1	> 100 µM (inactive)	> 100 µM (inactive)	> 100 µM (inactive)	–	> 100 µM (inactive)	> 100 µM (inactive)	> 100 µM (inactive)	> 100 µM (inactive)	> 100 µM (inactive)	> 100 µM (inactive)	> 100 µM (inactive)	> 100 µM (inactive)	> 100 µM (inactive)	> 100 µM (inactive)	> 100 µM (inactive)	> 100 µM (inactive)	> 100 µM (inactive)	> 100 µM (inactive)	> 100 µM (inactive)	> 100 µM (inactive)
CCOC(=O)C1=C(C)N(Cc2ccc(Cl)cc2Cl)C2(O)C(OC)CC(=O)C3C(=O)N(c4ccccc4)C(=O)C132 (stereo not given)	9.06 µM (inactive)	3.4 µM (inactive)	0.0541 µM (active)	3.13 µM (inactive)	2.64 µM (inactive)	1.39 µM (inactive)	2.01 µM (inactive)	1.97 µM (inactive)	2.86 µM (inactive)	2.63 µM (inactive)	1.91 µM (inactive)	10 µM (inactive)	0.995 µM (active)	2.26 µM (inactive)	2.08 µM (inactive)	3.97 µM (inactive)	2.53 µM (inactive)	–	1.11 µM (active)	3.46 µM (inactive)
Cc1cc(S(=O)(=O)NC2=Nc3cccc4cccc(c34)N2)c(S)cc1Cl	> 100 µM (inactive)	> 100 µM (inactive)	> 100 µM (inactive)	> 100 µM (inactive)	65.3 µM (inactive)	18.1 µM (inactive)	> 100 µM (inactive)	> 100 µM (inactive)	> 100 µM (inactive)	48.1 µM (inactive)	> 100 µM (inactive)	–	–	–	> 100 µM (inactive)	60.5 µM (inactive)	79.1 µM (inactive)	–	97.5 µM (inactive)	–
COC(=O)CCC(=O)NC1=C(NCc2ccccc2)C(=O)c2ccccc2C1=O	> 100 µM (inactive)	32.9 µM (inactive)	15.7 µM (inactive)	17.3 µM (inactive)	25.2 µM (inactive)	30.3 µM (inactive)	29.3 µM (inactive)	88.3 µM (inactive)	20.1 µM (inactive)	24.8 µM (inactive)	17.3 µM (inactive)	45.3 µM (inactive)	–	25.5 µM (inactive)	37.2 µM (inactive)	12.1 µM (inactive)	21.7 µM (inactive)	57.3 µM (inactive)	34.7 µM (inactive)	21.3 µM (inactive)
O=C1C=CC(=O)C(N(CCO)CCO)=C1.O=C1C=CC2(O)OCCN(CCO)C2=C1	> 100 µM (inactive)	> 100 µM (inactive)	> 100 µM (inactive)	> 100 µM (inactive)	> 100 µM (inactive)	> 100 µM (inactive)	> 100 µM (inactive)	> 100 µM (inactive)	–	> 100 µM (inactive)	> 100 µM (inactive)	> 100 µM (inactive)	> 100 µM (inactive)	> 100 µM (inactive)	> 100 µM (inactive)	> 100 µM (inactive)	> 100 µM (inactive)	> 100 µM (inactive)	> 100 µM (inactive)	> 100 µM (inactive)

Reference: ChEMBL document CHEMBL1201862, “PubChem BioAssay data set” (2004)
